Test results from patent publication US3978071A, “Substituted phenylalkanoic acids and derivatives” (Yoshitomi Pharmaceutical Industries, Ltd., priority 1973, dated 1976).

Assays:
[1] = tested on: o-phenyl-p-benzoquinone induced stretch symptoms; assay: Analgesic Action (Phenylquinone Method); assay type: in vivo, dd-strain male mice; conditions: Mus musculus, po, mice, 1 hour before 0.02% o-phenyl-p-benzoquinone i.p., dose required for 50% inhibition of stretch symptoms (30 minutes)
Experimental: According to the method of Hendershot et al. (J. Pharmacol. Exptl. Therap., 125, 237 (1959)), to one group of 6 dd-strain male mice each weighing about 20 g a test solution containing a test compound was orally administered and 1 hour later 0.2 ml/20 g of body weight of 0.02% o-phenyl-p-benzoquinone solution was intraperitoneally injected. The frequency of stretch symptoms thus induced was measured for 30 minutes, and compared with that of a control group, and the inhibition percentage (effect) was calculated. The ED50 the dose required for 50% inhibition, was calculated from the dose-response curve.

[2] = tested on: carrageenin edema of the hind paw; assay: Anti-inflammatory Action, Carrageenin Edema Method; assay type: in vivo, Donryu-strain male rats; conditions: Rattus norvegicus, po, rats, 1 hour before 1% carrageenin s.c.; paw bulk 2 hours after phlogogen; dose required for 50% inhibition
Experimental: i. Carrageenin Edema Method
According to the method of Winter et al. (Proc. Soc. Exptl. Biol. Med., 111, 544 (1962)), to one group of 5 Donryu-strain male rats each weighing about 130 g a test solution containing a test compound was administered orally. One hour later 0.05 ml of 1% carrageenin solution as phlogogenic substance was subcutaneously injected to the paw of the hind leg. And 2 hours after the administration of phlogogen the bulk of the paw was measured in order to obtain the increment percentage over that before administration. The ratio of bulk increment between a control group and a test group was calculated as inhibition percentage. The ED50, the dose required for 50% inhibition, was calculated from the dose-response curve.

[3] = tested on: ultraviolet erythema; assay: Anti-inflammatory Action, Ultraviolet Erythema Method; assay type: in vivo; conditions: Cavia porcellus, light or radiation study, po, guinea pigs, equal amounts 1 hour before and after irradiation; total dose required for 50% efficacy rate
Source text: ii. Ultraviolet Erythema Method:
Using guinea pigs weighing 250-450 g, a rubber plate with 3 holes of 7 mm in diameter was fitted to the abdomen, hair of which had been removed in advance, and light was given by a mercury lamp (300 W) at the distance of 15 cm for 150 seconds. Two hours later the degree of erythema formation was marked according to the method of Winder et al. (Arch. Intern. Pharmacodyn., 116, 261 (1958); 1 for distinct erythema, 0.5 for indistinct erythema and 0 for no erythema) and the efficacy rate was calculated, based on the criterion that 1.5 or less of total marks be effective. Equal amounts of the test solution were orally given 1 hour before and after the irradiation, respectively. The ED50, the total dose required for 50% efficacy rate, was calculated from the dose-response curve.

Compound | ED50 [1] [mg/kg] | ED50 [2] [mg/kg] | ED50 [3] [mg/kg]
CC(C(=O)O)c1ccc(-c2cn3ccccc3n2)cc1 (stereo not drawn) [A, 2-[4-(imidazo[1,2-a]pyridin-2-yl)phenyl]propionic acid] | 0.1 | 8 | 6
CC(C(=O)O)c1ccc(-c2cn3ccsc3n2)c(Cl)c1 (stereo not drawn) [E, 2-[3-chloro-4-(imidazo[2,1-b]thiazol-6-yl)phenyl]propionic acid] | 0.5 to 1 | 100 | 5
CC(C(=O)O)c1ccc(-c2cn3ccccc3n2)c(Cl)c1 (stereo not drawn) [B, 2-[3-chloro-4-(imidazo[1,2-a]pyridin-2-yl)phenyl]propionic acid] | 0.2 | 25 | 1
CC(C(=O)O)c1ccc(-c2cn3ccsc3n2)cc1 (stereo not drawn) [D, 2-[4-(imidazo[2,1-b]thiazol-6-yl)phenyl]propionic acid] | 13 | 50 | 2.5
CC(C(=O)O)c1ccc(-c2cn3ccccc3n2)c(F)c1 (stereo not drawn) [C, 2-[3-fluoro-4-(imidazo[1,2-a]pyridin-2-yl)phenyl]propionic acid] | 0.1 | 25 | 2.5
